Reference: patent publication EP4635500A1, “THERAPEUTIC AGENT FOR BACTERIAL INFECTION” (Sumitomo Pharma Co., Ltd., priority 2022, dated 2024)
Values after ≈ are worked out from the molar mass of the structure shown. Like-named read-outs stand apart in the source and are kept apart here.

System: P. aeruginosa
Test: MIC, broth microdilution, CDC/FDA Antibiotic Resistance Isolate Bank (Example 7, Tables 10, 15)
Type: cell-based
Details: Pseudomonas aeruginosa, read-out: MIC

Question: Which results are given for `NCC[C@H](O)C(=O)N[C@@H]1C[C@H](N)[C@@H](O[C@H]2O[C@H](CN)[C@@H](O)[C@H](O)[C@H]2O)[C@H](O)[C@H]1O[C@H]1O[C@H](CO)[C@@H](O)[C@H](N)[C@H]1O` [Amikacin, amikacin]?
Answer: MIC (P. aeruginosa KUB No. 5667, AR Bank # 234): 8 µg/mL (≈ 13.7 µM); MIC (P. aeruginosa KUB No. 5668, AR Bank # 235): 64 µg/mL (≈ 109 µM); MIC (P. aeruginosa KUB No. 5669, AR Bank # 236): 8 µg/mL (≈ 13.7 µM); MIC (P. aeruginosa KUB No. 5670, AR Bank # 237): 2 µg/mL (≈ 3.42 µM); MIC (P. aeruginosa KUB No. 5671, AR Bank # 238): 4 µg/mL (≈ 6.83 µM); MIC (P. aeruginosa KUB No. 5672, AR Bank # 239): > 64 µg/mL; MIC (P. aeruginosa KUB No. 5673, AR Bank # 240): 64 µg/mL (≈ 109 µM); MIC (P. aeruginosa KUB No. 5674, AR Bank # 241): 32 µg/mL (≈ 54.6 µM); MIC (P. aeruginosa KUB No. 5675, AR Bank # 242): 64 µg/mL (≈ 109 µM); MIC (P. aeruginosa KUB No. 5676, AR Bank # 243): 32 µg/mL (≈ 54.6 µM); MIC (P. aeruginosa KUB No. 5677, AR Bank # 244): 8 µg/mL (≈ 13.7 µM); MIC (P. aeruginosa KUB No. 5678, AR Bank # 245): > 64 µg/mL; MIC (P. aeruginosa KUB No. 5679, AR Bank # 246): > 64 µg/mL; MIC (P. aeruginosa KUB No. 5680, AR Bank # 247): 4 µg/mL (≈ 6.83 µM); MIC (P. aeruginosa KUB No. 5681, AR Bank # 248): 64 µg/mL (≈ 109 µM); MIC (P. aeruginosa KUB No. 5682, AR Bank # 249): > 64 µg/mL; MIC (P. aeruginosa KUB No. 5684, AR Bank # 251): 8 µg/mL (≈ 13.7 µM); MIC (P. aeruginosa KUB No. 5685, AR Bank # 252): 0.5 µg/mL (≈ 0.854 µM); MIC (P. aeruginosa KUB No. 5687, AR Bank # 254): > 64 µg/mL; MIC (P. aeruginosa KUB No. 5688, AR Bank # 255): > 64 µg/mL; MIC (P. aeruginosa KUB No. 5689, AR Bank # 256): 2 µg/mL (≈ 3.42 µM); MIC (P. aeruginosa KUB No. 5690, AR Bank # 257): 8 µg/mL (≈ 13.7 µM); MIC (P. aeruginosa KUB No. 5691, AR Bank # 258): 4 µg/mL (≈ 6.83 µM); MIC (P. aeruginosa KUB No. 5692, AR Bank # 259): 2 µg/mL (≈ 3.42 µM); MIC (P. aeruginosa KUB No. 5693, AR Bank # 260): 64 µg/mL (≈ 109 µM); MIC (P. aeruginosa KUB No. 5694, AR Bank # 261): 16 µg/mL (≈ 27.3 µM); MIC (P. aeruginosa KUB No. 5695, AR Bank # 262): 4 µg/mL (≈ 6.83 µM); MIC (P. aeruginosa KUB No. 5696, AR Bank # 263): 32 µg/mL (≈ 54.6 µM); MIC (P. aeruginosa KUB No. 5697, AR Bank # 264): 2 µg/mL (≈ 3.42 µM); MIC (P. aeruginosa KUB No. 5698, AR Bank # 265): 8 µg/mL (≈ 13.7 µM); MIC (P. aeruginosa KUB No. 5699, AR Bank # 266): 8 µg/mL (≈ 13.7 µM); MIC (P. aeruginosa KUB No. 5700, AR Bank # 267): 16 µg/mL (≈ 27.3 µM); MIC (P. aeruginosa KUB No. 5701, AR Bank # 268): 8 µg/mL (≈ 13.7 µM); MIC (P. aeruginosa KUB No. 5702, AR Bank # 269): 4 µg/mL (≈ 6.83 µM); MIC (P. aeruginosa KUB No. 5703, AR Bank # 270): 16 µg/mL (≈ 27.3 µM); MIC (P. aeruginosa KUB No. 5704, AR Bank # 271): 4 µg/mL (≈ 6.83 µM); MIC (P. aeruginosa KUB No. 5705, AR Bank # 272): 4 µg/mL (≈ 6.83 µM); MIC (P. aeruginosa KUB No. 5747, AR Bank # 351): 64 µg/mL (≈ 109 µM); MIC (P. aeruginosa KUB No. 5748, AR Bank # 352): 4 µg/mL (≈ 6.83 µM); MIC (P. aeruginosa KUB No. 5749, AR Bank # 353): 64 µg/mL (≈ 109 µM); MIC (P. aeruginosa KUB No. 5750, AR Bank # 354): 8 µg/mL (≈ 13.7 µM); MIC (P. aeruginosa KUB No. 5751, AR Bank # 355): 8 µg/mL (≈ 13.7 µM); MIC (P. aeruginosa KUB No. 5752, AR Bank # 356): 2 µg/mL (≈ 3.42 µM); MIC (P. aeruginosa KUB No. 5753, AR Bank # 357): > 64 µg/mL; MIC (P. aeruginosa KUB No. 5754, AR Bank # 358): 4 µg/mL (≈ 6.83 µM); MIC (P. aeruginosa KUB No. 5755, AR Bank # 359): 4 µg/mL (≈ 6.83 µM); MIC (P. aeruginosa KUB No. 5756, AR Bank # 360): 4 µg/mL (≈ 6.83 µM); MIC (P. aeruginosa KUB No. 5785, AR Bank # 439): > 64 µg/mL; MIC (P. aeruginosa KUB No. 5786, AR Bank # 440): 8 µg/mL (≈ 13.7 µM); MIC (P. aeruginosa KUB No. 5787, AR Bank # 441): 2 µg/mL (≈ 3.42 µM); MIC (P. aeruginosa KUB No. 5788, AR Bank # 443): 64 µg/mL (≈ 109 µM); MIC (P. aeruginosa KUB No. 5789, AR Bank # 444): > 64 µg/mL; MIC (P. aeruginosa KUB No. 5790, AR Bank # 445): 64 µg/mL (≈ 109 µM); MIC (P. aeruginosa KUB No. 5793, AR Bank # 449): 8 µg/mL (≈ 13.7 µM); MIC (P. aeruginosa KUB No. 5798, AR Bank # 455): 0.25 µg/mL (≈ 0.427 µM); MIC (P. aeruginosa KUB No. 5799, AR Bank # 456): 8 µg/mL (≈ 13.7 µM); MIC (P. aeruginosa KUB No. 5800, AR Bank # 457): 2 µg/mL (≈ 3.42 µM); MIC (P. aeruginosa KUB No. 5801, AR Bank # 458): 16 µg/mL (≈ 27.3 µM); MIC (P. aeruginosa KUB No. 5802, AR Bank # 459): 8 µg/mL (≈ 13.7 µM); MIC (P. aeruginosa KUB No. 5804, AR Bank # 862): 4 µg/mL (≈ 6.83 µM); MIC (P. aeruginosa KUB No. 5805, AR Bank # 863): > 64 µg/mL; MIC (P. aeruginosa KUB No. 5806, AR Bank # 864): 0.5 µg/mL (≈ 0.854 µM); MIC (P. aeruginosa KUB No. 5813, AR Bank # 508): 0.064 µg/mL (≈ 0.109 µM); MIC (P. aeruginosa KUB No. 5814, AR Bank # 509): > 0.064 µg/mL; MIC (P. aeruginosa KUB No. 5815, AR Bank # 510): 0.008 µg/mL (≈ 0.0137 µM); MIC (P. aeruginosa KUB No. 5816, AR Bank # 511): 0.004 µg/mL (≈ 0.00683 µM); MIC (P. aeruginosa KUB No. 5817, AR Bank # 512): 0.004 µg/mL (≈ 0.00683 µM); MIC (P. aeruginosa KUB No. 5818, AR Bank # 513): 0.032 µg/mL (≈ 0.0546 µM); MIC (P. aeruginosa KUB No. 5819, AR Bank # 514): 0.004 µg/mL (≈ 0.00683 µM); MIC (P. aeruginosa KUB No. 5820, AR Bank # 515): 0.008 µg/mL (≈ 0.0137 µM); MIC (P. aeruginosa KUB No. 5821, AR Bank # 516): 0.002 µg/mL (≈ 0.00342 µM); MIC (P. aeruginosa KUB No. 5823, AR Bank # 518): 0.016 µg/mL (≈ 0.0273 µM); MIC (P. aeruginosa KUB No. 5831, AR Bank # 526): 0.004 µg/mL (≈ 0.00683 µM); MIC (P. aeruginosa KUB No. 5832, AR Bank # 527): 0.0005 µg/mL (≈ 0.000854 µM); MIC (P. aeruginosa KUB No. 5833, AR Bank # 528): 0.008 µg/mL (≈ 0.0137 µM); MIC (P. aeruginosa KUB No. 5834, AR Bank # 529): 0.004 µg/mL (≈ 0.00683 µM)
